According to US20260078135A1, “POLYCYCLIC QUINAZOLINES FOR INHIBITION OF ERBB2” (Enliven Inc., priority 2022, published 2026):
pIC50: −log10 of the molar value.

Legend:
[1] = biological target: T1, phosphorylated ERBB2 (pERBB2) (Homo sapiens, UniProt P04626); test: Detection of phosphorylated ERBB2 (pERBB2) by ELISA in BT-474 cells; format: cell-based; conditions: four hour incubation
T1 construct: endogenous in cells; host or cells: BT-474
Method: BT-474 cells were seeded into a 96-well at 2.0*10^4 cells/100 μl/well. Compounds were dissolved and serially diluted in DMSO. The compounds were then were added, mixed, and incubated for four hours at 37° C., 5% CO2. Compounds were added using four-fold dilutions at final concentrations ranging from 10 μM to 0.01 nM. Following the four hour incubation with compounds, cell lysates were prepared. Plates were centrifuged for 5 μmin at 3000 RPM, and supernatant was removed from each well. Cells were washed 3 times by resuspension in 150 μl PBS, followed by centrifugation and removal of the supernatant, as above. 100 μl of cell lysis buffer (Boston BioProducts, cat #BP-115D) supplied with 1× complete ULTRA cocktail inhibitor (Thermo ScientificTM, cat #78443) was then added to the washed cells. Cells were incubated with lysis buffer for 1 hour at 4° C., and then stored at -80° C. Enzyme-linked immunosorbent assays (ELISA) were performed to measure phosphorylated ERBB2 levels. […] The next day, plates were washed with PBS+0.05% Tween20 (PBST). 150 μl of 5% BSA blocking solution was added for 1 hour at room temperature, with shaking. Plates were washed with PBST. Cell lysates were thawed and 100 μl of lysate was added to the ELISA plate. The plates were incubated for 2 hours at room temperature, with shaking. ELISA plates were then washed with PBST and 100 μl of an HRP-labeled detection antibody that binds phosphorylated tyrosine (R&D Systems, cat #841913) was added to each well. Plates were incubated for 1 hour at room temperature, with shaking. Plates were then washed with PBST, and 100 μl TMB substrate solution (R&D Systems, cat #DY999) was added. Plate were incubated in the dark for 20 minutes at room temperature. 50 μl of Stop solution (R&D Systems, cat #DY994) (50 μl) was added to each well and mixed. Optical density at 450 nm was read on an EnSpire plate reader (Perkin Elmer). The remaining kinase activity by calculated using the following formula: % Relative activity=100×([…]). The low and high control values (“LC” and “HC”) were generated from lysate from wells without cells or with cells treated with 0.1% DMSO, respectively.

[2] = biological target: T2, phosphorylated EGFR (pEGFR) (Homo sapiens, UniProt P00533); test: Detection of phosphorylated EGFR (pEGFR) by AlphaLISA in EGF-stimulated A431 cells; format: cell-based; conditions: A431 cells (10% FBS), 4 hours incubation, EGF 30 ng/mL for 10 minutes
T2 construct: performed to measure phosphorylated EGFR levels using A431 cells (10% FBS); endogenous in cells; host or cells: A431
T2 sequence (P00533 25-1210): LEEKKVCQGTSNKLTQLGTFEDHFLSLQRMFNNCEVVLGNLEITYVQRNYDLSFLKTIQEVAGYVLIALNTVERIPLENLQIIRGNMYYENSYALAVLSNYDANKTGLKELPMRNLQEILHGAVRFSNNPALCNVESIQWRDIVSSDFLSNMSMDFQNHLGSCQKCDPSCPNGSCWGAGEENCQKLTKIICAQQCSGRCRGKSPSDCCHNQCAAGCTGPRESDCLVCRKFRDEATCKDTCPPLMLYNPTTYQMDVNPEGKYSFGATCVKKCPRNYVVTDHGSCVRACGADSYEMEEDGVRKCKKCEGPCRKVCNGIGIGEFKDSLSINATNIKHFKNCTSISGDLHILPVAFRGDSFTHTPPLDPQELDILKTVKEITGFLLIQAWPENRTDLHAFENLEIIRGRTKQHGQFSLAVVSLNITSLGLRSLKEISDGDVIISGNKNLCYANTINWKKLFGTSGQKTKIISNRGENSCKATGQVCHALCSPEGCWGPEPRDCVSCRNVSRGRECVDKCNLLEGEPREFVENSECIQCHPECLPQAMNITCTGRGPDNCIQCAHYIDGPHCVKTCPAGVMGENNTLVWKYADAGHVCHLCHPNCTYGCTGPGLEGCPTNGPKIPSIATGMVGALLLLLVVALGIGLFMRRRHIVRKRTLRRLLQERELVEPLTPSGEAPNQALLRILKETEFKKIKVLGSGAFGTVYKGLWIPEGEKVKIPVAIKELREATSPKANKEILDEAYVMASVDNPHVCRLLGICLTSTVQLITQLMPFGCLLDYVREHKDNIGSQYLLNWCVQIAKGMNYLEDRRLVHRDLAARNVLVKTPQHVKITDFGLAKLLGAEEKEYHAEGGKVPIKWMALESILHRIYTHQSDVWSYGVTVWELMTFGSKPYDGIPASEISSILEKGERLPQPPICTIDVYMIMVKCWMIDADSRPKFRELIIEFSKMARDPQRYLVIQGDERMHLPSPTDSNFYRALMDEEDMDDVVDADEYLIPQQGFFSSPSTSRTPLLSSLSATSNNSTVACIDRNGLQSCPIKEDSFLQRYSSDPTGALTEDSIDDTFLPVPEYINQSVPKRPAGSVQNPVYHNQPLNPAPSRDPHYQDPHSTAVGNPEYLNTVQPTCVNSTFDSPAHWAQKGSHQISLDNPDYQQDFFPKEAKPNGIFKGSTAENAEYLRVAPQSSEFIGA
Method: Enzyme-linked immunosorbent assays (ELISA) were performed to measure phosphorylated EGFR levels using A431 cells (10% FBS). A431 (1.0*10^4 cells/40 μl/well) cells were seeded in 384 well. Compounds were dissolved in DMSO, serially diluted in DMSO and then were added, mixed, and incubated for 4 hours at 37° C., 5% C02. Following the 4-hours incubation, cells were stimulated for 10 minutes with EGF (Invitrogen, cat #PHG0311) at a final concentration of 30 ng/mL in the incubator. The media was aspirated and cells were lysed in 10 μL lysis buffer with protease and phosphatase inhibitors (PerkinElmer, cat #ALSU-PEGFR-A50K). The plates were placed on a shaker for 5 μminutes and then incubated for 30 min at 4° C. for complete lysis. The lysate was transferred to an Optiplate (Perkin Elmer, cat #6007290).
Acceptor mix (PerkinElmer, cat #ALSU-PEGFR-A50K) was prepared just before use and 5 μL was dispensed to all the wells, followed by a 1.5-2 h incubation at room temperature in dark. The donor mix (PerkinElmer, cat #ALSU-PEGFR-A50K) was prepared under low light conditions prior to use and 5 μl of donor mix was added to all the wells under subdued lighting or green filters. The plates were placed on a shaker for 5 μmin, sealed, and incubated overnight at room temperature in dark. Plates were read on the Envision (PerkinElmer) using standard AlphaLISA settings.
The percentage of inhibition on EGFR phosphorylation was calculated following equation: % Inhibition=100×(LumHC−LumSample)/(LumHC−LumLC). The low and high controls (LC/HC) are generated from lysate from wells with cells treated with DMSO or […] Staurosporine (BioAustralis, cat #BIA-S1086), […]. IC50 values were calculated by fitting the Curve using XLfit (v5.3.1.3), equation 201: Y=Bottom+(Top−Bottom)/(1+10^((Log IC50−X)*HillSlope)).

T1 sequence (P04626 23-1255): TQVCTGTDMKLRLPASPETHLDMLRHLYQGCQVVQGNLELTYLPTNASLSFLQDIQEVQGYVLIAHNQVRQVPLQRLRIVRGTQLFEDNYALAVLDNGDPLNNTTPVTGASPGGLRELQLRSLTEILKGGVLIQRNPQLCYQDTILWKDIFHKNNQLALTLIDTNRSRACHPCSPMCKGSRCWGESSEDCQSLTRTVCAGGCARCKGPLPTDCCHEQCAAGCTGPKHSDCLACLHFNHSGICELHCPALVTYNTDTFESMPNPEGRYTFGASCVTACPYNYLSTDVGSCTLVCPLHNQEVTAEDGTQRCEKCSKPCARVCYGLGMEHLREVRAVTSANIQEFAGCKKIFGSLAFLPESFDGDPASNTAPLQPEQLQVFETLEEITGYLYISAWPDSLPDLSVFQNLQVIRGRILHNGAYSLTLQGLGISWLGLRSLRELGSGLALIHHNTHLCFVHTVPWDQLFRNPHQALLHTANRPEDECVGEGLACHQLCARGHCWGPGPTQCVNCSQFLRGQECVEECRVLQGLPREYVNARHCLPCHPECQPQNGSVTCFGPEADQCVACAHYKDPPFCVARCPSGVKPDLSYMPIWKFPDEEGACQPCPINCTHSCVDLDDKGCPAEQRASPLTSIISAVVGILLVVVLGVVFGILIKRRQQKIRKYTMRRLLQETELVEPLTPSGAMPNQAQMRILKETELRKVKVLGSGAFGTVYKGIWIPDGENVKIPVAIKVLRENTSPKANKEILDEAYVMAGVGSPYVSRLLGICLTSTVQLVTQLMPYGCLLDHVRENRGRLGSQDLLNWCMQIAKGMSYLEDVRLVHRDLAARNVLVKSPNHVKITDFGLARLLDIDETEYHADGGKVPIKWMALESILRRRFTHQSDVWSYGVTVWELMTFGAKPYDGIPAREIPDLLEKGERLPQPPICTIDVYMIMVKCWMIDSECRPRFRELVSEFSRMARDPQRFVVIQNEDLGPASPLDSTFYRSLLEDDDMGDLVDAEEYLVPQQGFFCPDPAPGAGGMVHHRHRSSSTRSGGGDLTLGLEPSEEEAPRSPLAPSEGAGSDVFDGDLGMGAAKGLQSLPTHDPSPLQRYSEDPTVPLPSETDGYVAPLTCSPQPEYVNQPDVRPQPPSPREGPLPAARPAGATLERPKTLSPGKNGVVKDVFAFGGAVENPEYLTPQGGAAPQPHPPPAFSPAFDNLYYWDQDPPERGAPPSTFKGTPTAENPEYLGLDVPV

pIC50 [1]	pIC50 [2]	Compound
7.34	< 5.00	COCCN1CCN2c3ccc4ncnc(Nc5ccc(Oc6ccn7ncnc7c6)c(C)c5)c4c3OC[C@H]2C1 [Compound 111, (R)—N-(4-([1,2,4]triazolo[1,5-a]pyridin-7-yloxy)-3-methylphenyl)-8-(2-methoxyethyl)-6,6a,7,8,9,10-hexahydropyrazino[1′,2′:4,5][1,4]oxazino[2,3-f]quinazolin-4-amine]
7.11	< 5.00	Cc1cc(Nc2ncnc3cc4c(nc23)N2CCNC[C@H]2CO4)ccc1Oc1ccc2c(c1)ncn2C [Compound 37, (S)—N-(3-methyl-4-((1-methyl-1H-benzo[d]imidazol-5-yl)oxy)phenyl)-1,2,3,4,4a,5-hexahydropyrazino[1,2-d]pyrimido[4′,5′:5,6]pyrido[3,2-b][1,4]oxazin-11-amine]
7.11	< 5.00	Cc1cc(Nc2ncnc3cc4c(nc23)N2CCOC[C@H]2CO4)ccc1Oc1ccc2c(c1)ncn2C [Compound 107, (S)—N-(3-methyl-4-((1-methyl-1H-benzo[d]imidazol-5-yl)oxy)phenyl)-1,2,4a,5-tetrahydro-4H-[1,4]oxazino[4,3-d]pyrimido[4′,5′:5,6]pyrido[3,2-b][1,4]oxazin-11-amine]
7.27	< 5.00	Cc1cc(Nc2ncnc3ccc4c(c23)OC[C@H]2CNCCN42)ccc1Oc1ccc2c(c1)ncn2C [Compound 45, (R)—N-(3-methyl-4-((1-methyl-1H-benzo[d]imidazol-5-yl)oxy)phenyl)-6,6a,7,8,9,10-hexahydropyrazino[1′,2′:4,5][1,4]oxazino[2,3-f]quinazolin-4-amine]
6.30	< 5.00	Fc1cc(Oc2ccn3ncnc3c2)ccc1Nc1ncnc2ccc3c(c12)OC[C@H]1COCCN31 [Compound 101, (R)—N-(4-([1,2,4]triazolo[1,5-a]pyridin-7-yloxy)-2-fluorophenyl)-6a,7,9,10-tetrahydro-6H-[1,4]oxazino[4′,3′:4,5][1,4]oxazino[2,3-f]quinazolin-4-amine]
7.41	< 5.00	Cc1cc(Nc2ncnc3cc4c(cc23)N2CCN(C)C[C@H]2CO4)ccc1Oc1ccc2c(c1)ncn2C [Compound 62, (S)-3-methyl-N-(3-methyl-4-((1-methyl-1H-benzo[d]imidazol-5-yl)oxy)phenyl)-1,2,3,4,4a,5-hexahydropyrazino[1′,2′:4,5][1,4]oxazino[3,2-g]quinazolin-11-amine]
7.13	< 5.00	Cc1cc(Nc2ncnc3cc4c(nc23)N2CCN(C)C[C@H]2CO4)c(F)cc1Oc1ccn2ncnc2c1 [Compound 75, (S)—N-(4-([1,2,4]triazolo[1,5-a]pyridin-7-yloxy)-2-fluoro-5-methylphenyl)-3-methyl-1,2,3,4,4a,5-hexahydropyrazino[1,2-d]pyrimido[4′,5′:5,6]pyrido[3,2-b][1,4]oxazin-11-amine]
7.02	< 5.00	CCN1CCN2c3nc4c(Nc5ccc(Oc6ccn7ncnc7c6)c(C)c5)ncnc4cc3OC[C@@H]2C1 [Compound 65, (S)—N-(4-([1,2,4]triazolo[1,5-a]pyridin-7-yloxy)-3-methylphenyl)-3-ethyl-1,2,3,4,4a,5-hexahydropyrazino[1,2-d]pyrimido[4′,5′:5,6]pyrido[3,2-b][1,4]oxazin-11-amine]
6.84	< 5.00	Cc1cc(Nc2ncnc3ccc4c(c23)OC[C@@H]2CN(C)CCN42)ccc1Oc1ccc2c(c1)ncn2C [Compound 48, (S)-8-methyl-N-(3-methyl-4-((1-methyl-1H-benzo[d]imidazol-5-yl)oxy)phenyl)-6,6a,7,8,9,10-hexahydropyrazino[1′,2′:4,5][1,4]oxazino[2,3-f]quinazolin-4-amine]
6.59	< 5.00	Cc1c(Oc2ccn3ncnc3c2)ccc(Nc2ncnc3cc4c(nc23)N2CCOC[C@H]2CO4)c1F [Compound 102, (S)—N-(4-([1,2,4]triazolo[1,5-a]pyridin-7-yloxy)-2-fluoro-3-methylphenyl)-1,2,4a,5-tetrahydro-4H-[1,4]oxazino[4,3-d]pyrimido[4′,5′:5,6]pyrido[3,2-b][1,4]oxazin-11-amine]
6.65	< 5.00	Cc1cc(Nc2ncnc3cc4c(c(F)c23)N2CCOC[C@H]2CO4)ccc1Oc1ccn2ncnc2c1 [Compound 105, (S)—N-(4-([1,2,4]triazolo[1,5-a]pyridin-7-yloxy)-3-methylphenyl)-12-fluoro-1,2,4a,5-tetrahydro-4H-[1,4]oxazino[4′,3′:4,5][1,4]oxazino[3,2-g]quinazolin-11-amine]
7.66	< 5.00	Cc1cc(Nc2ncnc3cc4c(cc23)N2CCN(C)C[C@H]2CO4)ccc1Oc1ccn2ncnc2c1 [Compound 58, (S)—N-(4-([1,2,4]triazolo[1,5-a]pyridin-7-yloxy)-3-methylphenyl)-3-methyl-1,2,3,4,4a,5-hexahydropyrazino[1′,2′:4,5][1,4]oxazino[3,2-g]quinazolin-11-amine]
6.82	< 5.00	Cc1cc(Nc2ncnc3cc4c(nc23)N2CCN(C)C[C@@H]2CO4)ccc1Oc1ccc2c(c1)ncn2C [Compound 40, (R)-3-methyl-N-(3-methyl-4-((1-methyl-1H-benzo[d]imidazol-5-yl)oxy)phenyl)-1,2,3,4,4a,5-hexahydropyrazino[1,2-d]pyrimido[4′,5′:5,6]pyrido[3,2-b][1,4]oxazin-11-amine]
6.65	< 5.00	Cc1cc(Nc2ncnc3cc4c(cc23)N2CCN(C)C[C@@H]2CO4)ccc1Oc1ccc2c(c1)ncn2C [Compound 64, (R)-3-methyl-N-(3-methyl-4-((1-methyl-1H-benzo[d]imidazol-5-yl)oxy)phenyl)-1,2,3,4,4a,5-hexahydropyrazino[1′,2′:4,5][1,4]oxazino[3,2-g]quinazolin-11-amine]
7.04	< 5.00	Cc1cc(Nc2ncnc3cc4c(cc23)N2CCNC[C@@H]2CO4)ccc1Oc1ccn2ncnc2c1 [Compound 59, (R)—N-(4-([1,2,4]triazolo[1,5-a]pyridin-7-yloxy)-3-methylphenyl)-1,2,3,4,4a,5-hexahydropyrazino[1′,2′:4,5][1,4]oxazino[3,2-g]quinazolin-11-amine]
